Test results: article PMC5346723, “Delivery of a peptide-drug conjugate targeting the blood brain barrier improved the efficacy of paclitaxel against glioma” (Oncotarget, 2016)
Peptide text beside a SMILES is read from it. * marks the point of attachment. Biotin = O=C1N[C@H]2[C@H](CS[C@H]2CCCCC(=O)*)N1

Experiments:
U87 glioblastoma cells = assay: MTT assay; type: cell-based, human; details: 1 × 10^5 cells/100 μl/well, 96-well, 37°C, sample concentration for the table not stated (0.1-2.5 mg/mL tested), absorbance 570 nm
Experimental: The cytotoxicity of ANG, ANG-TAT, ANG-PTX and ANG-TAT-PTX were determined using the 3-[4,5-dimethylthiazol-2-yl]-2,5-diphenyl tetrazolium bromide (MTT) assay. Human U87 glioblastoma cell (1×10^5 cells/100 μl per well) were cultured in 96-well plates at 37°C in 5% CO2. Aqueous solutions of the samples were dissolved in culture medium at final concentrations of 0.1, 0.5, 1, and 2.5 mg/mL. After incubation for 24 and 48 hours, the MTT solution (in 2 mg/mL phosphate-buffered saline) was added, the plates were incubated for 4 hours, and the cells were lysed with 50% N, N-dimethylformamide containing 20% sodium dodecyl sulfate (pH 4.5). Absorbance at 570 nm was measured for each well using a SpectraMax M5 (Molecular Devices, Sunnyvale, CA USA). The absorbance of control cells was taken as 100% viability, and the values of the treated cells were calculated as a percentage of the control.

[1] = test system: U87 glioblastoma brain tumor tissue; assay: Brain extraction of biotin labelled peptides after tail vein injection in mice with intracerebral U87 tumors; type: in vivo, CD-1 nude mice; details: 50 μg/kg, brain removed 15 min after injection, tumor implanted right hemisphere, biotin quantitative kit, P<0.05
Experimental: Biotin ANG and biotin ANG-TAT (50 μg/kg body weight) were injected into the tail vein of CD-1 nude mice carrying intracerebral implants of U87 glioblastoma cells. Fifteen minutes after injection the mice were killed, and the brains were surgically removed. The brain tissues were dissected and maintained in cold saline containing protease inhibitors until processing. To compare normal and tumor brain tissue, the right hemisphere (implanted hemisphere) was compared with the left hemisphere (non-implanted hemisphere). To extract biotin ANG and biotin ANG-TAT, tissues were mechanically homogenized in homogenization buffer (0.1 M Tris–HCl, pH 5.0, 50 mM sucrose, 0.003% Tween-80, and protease inhibitor cocktail) on ice. Acetonitrile (ACN) 100% was added to a final concentration of 65% (v/v). The mixture was stirred for 10 min in a cold room and then centrifuged at 3000 r.p.m. for 5 min. Acetonitrile supernatants were collected and dried in a rotative evaporator and finally freeze-dried. The concentration of biotin ANG and biotin ANG-TAT in the samples was determined using biotin quantitative kit from Elabsciences, Inc (Shanghai, China).
The U87 cell line was used to assess peptide uptake in an animal model of glioma. Cells suspension were prepared at a final concentration of 1×10^4 cells/ml in PBS and kept on ice until injection. […]

| SMILES | MTT assay of ANG-TAT-PTX in tumor cells, 24h (U87 glioblastoma cells; 5% CO2, 24 h incubation) | MTT assay of ANG-TAT-PTX in tumor cells, 48h (U87 glioblastoma cells; 5% CO2, 48 h incubation) | Amount extracted from tumor tissue relative to biotin ANG [1] [fold] |
| --- | --- | --- | --- |
| CC(=O)O[C@H]1C(=O)[C@@]2(C)[C@H]([C@H](OC(=O)c3ccccc3)[C@]3(O)C[C@H](OC(=O)[C@H](O)[C@@H](NC(=O)c4ccccc4)c4ccccc4)C(C)=C1C3(C)C)[C@]1(OC(C)=O)CO[C@@H]1C[C@@H]2O [Free PTX, Paclitaxel] | 20.53±2.21 | 42.36±2.35 | – |
| C[C@@H](O)[C@H](N)C(=O)N[C@@H](Cc1ccccc1)C(=O)N[C@@H](Cc1ccccc1)C(=O)N[C@@H](Cc1ccc(O)cc1)C(=O)NCC(=O)NCC(=O)N[C@@H](CO)C(=O)N[C@@H](CCCNC(=N)N)C(=O)NCC(=O)N[C@@H](CCCCN)C(=O)N[C@@H](CCCNC(=N)N)C(=O)N[C@@H](CC(N)=O)C(=O)N[C@@H](CC(N)=O)C(=O)N[C@@H](Cc1ccccc1)C(=O)N[C@@H](CCCCNC(=O)CCCC[C@@H]1SC[C@@H]2NC(=O)N[C@@H]21)C(=O)N[C@H](C(=O)N[C@@H](CCC(=O)O)C(=O)N[C@@H](CCC(=O)O)C(=O)N[C@@H](Cc1ccc(O)cc1)C(=O)NCC(=O)N[C@@H](CCCNC(=N)N)C(=O)N[C@@H](CCCCN)C(=O)N[C@@H](CCCCN)C(=O)N[C@@H](CCCNC(=N)N)C(=O)N[C@@H](CCCNC(=N)N)C(=O)N[C@@H](CCC(N)=O)C(=O)N[C@@H](CCCNC(=N)N)C(=O)N[C@@H](CCCNC(=N)N)C(=O)N[C@@H](CCCNC(=N)N)C(=O)N1CCC[C@H]1C(=O)N1CCC[C@H]1C(=O)N[C@@H](CCC(N)=O)C(=O)N[C@@H](CCC(N)=O)C(=O)O)[C@@H](C)O [biotin ANG-TAT] (H-TFFYGGSRGKRNNFK(Biotin)TEEYGRKKRRQRRRPPQQ-OH) | – | – | 1.8 |
